Experimental data taken from ChEMBL document CHEMBL4219040, “Modulation of Glycine-Mediated Spinal Neurotransmission for the Treatment of Chronic Pain” (J Med Chem, 2018).
Numbering of substitutions follows the chain as printed. Values belong to the molecule of their own block, whether it stands above or below them.

Key:
[1] = biological target: T1, Glycine receptor subunit alpha-3 (Homo sapiens, UniProt O75311); experiment: Positive allosteric modulation of human GlyRalpha3 expressed in HEK293 cells assessed as potentiation of glycine-induced current flux by electrophysiology method; format: cell-based
T1 sequence (O75311 whole entry): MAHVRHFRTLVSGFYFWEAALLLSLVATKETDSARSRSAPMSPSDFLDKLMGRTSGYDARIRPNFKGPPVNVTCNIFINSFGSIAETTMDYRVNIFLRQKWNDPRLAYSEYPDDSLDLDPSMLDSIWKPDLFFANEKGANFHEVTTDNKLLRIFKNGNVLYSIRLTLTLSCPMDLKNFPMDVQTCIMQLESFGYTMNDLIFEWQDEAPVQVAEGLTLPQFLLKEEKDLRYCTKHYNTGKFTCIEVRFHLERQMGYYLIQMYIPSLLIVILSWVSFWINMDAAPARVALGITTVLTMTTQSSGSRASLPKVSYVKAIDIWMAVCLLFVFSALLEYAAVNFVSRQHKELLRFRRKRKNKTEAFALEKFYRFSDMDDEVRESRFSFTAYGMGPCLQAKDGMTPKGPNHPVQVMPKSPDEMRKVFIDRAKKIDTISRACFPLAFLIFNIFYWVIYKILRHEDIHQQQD

[2] = biological target: T2, Glycine receptor subunit alpha-1 (Homo sapiens) (UniProt P23415); experiment: Positive allosteric modulation of human GlyRalpha1 expressed in HEK293 cells assessed as potentiation of glycine-induced current flux at 100 uM by electrophysiology method relative to control; format: cell-based
T2 sequence (whole entry): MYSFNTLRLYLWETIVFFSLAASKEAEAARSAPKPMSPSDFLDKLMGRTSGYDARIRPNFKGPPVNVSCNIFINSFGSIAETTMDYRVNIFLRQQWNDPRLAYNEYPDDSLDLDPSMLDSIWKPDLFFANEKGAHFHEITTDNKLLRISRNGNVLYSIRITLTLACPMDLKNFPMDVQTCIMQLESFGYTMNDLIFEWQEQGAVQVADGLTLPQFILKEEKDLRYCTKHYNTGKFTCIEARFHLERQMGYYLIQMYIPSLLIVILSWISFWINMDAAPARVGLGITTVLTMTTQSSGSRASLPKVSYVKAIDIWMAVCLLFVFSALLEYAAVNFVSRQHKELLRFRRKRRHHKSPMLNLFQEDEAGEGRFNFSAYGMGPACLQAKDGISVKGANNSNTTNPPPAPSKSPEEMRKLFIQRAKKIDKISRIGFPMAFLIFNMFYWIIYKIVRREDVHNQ

[3] = biological target: T3, Glycine receptor subunit alpha-3 (Homo sapiens) (UniProt O75311); experiment: Positive allosteric modulation of human GlyRalpha3 expressed in HEK293 cells assessed as potentiation of glycine-induced current flux at 100 uM by electrophysiology method relative to control; format: cell-based
T3 sequence (whole entry): T1 sequence (O75311 whole entry)

[4] = biological target: Glycine receptor (alpha-1/beta) (Homo sapiens) (UniProt P23415+P48167); experiment: Positive allosteric modulation of human GlyRalpha1beta expressed in HEK293 cells assessed as potentiation of glycine-induced calcium flux by calcium dye-5 based FLIPR assay relative to glycine; format: cell-based
[5] = biological target: T4, Glycine receptor subunit alpha-3 (Mus musculus) (UniProt Q91XP5); experiment: Positive allosteric modulation of mouse GlyRalpha3 expressed in HEK293 cells assessed as potentiation of glycine-induced calcium flux by calcium dye-5 based FLIPR assay relative to glycine; format: cell-based
T4 sequence (whole entry): T1 sequence (O75311 whole entry) with D32N, M372T, M398V, T399V, P406A

[6] = biological target: T5, Glycine receptor subunit alpha-3 (Mus musculus, UniProt Q91XP5); experiment: Positive allosteric modulation of mouse GlyRalpha3 expressed in HEK293 cells assessed as potentiation of glycine-induced calcium flux by calcium dye-5 based FLIPR assay; format: cell-based
T5 sequence (Q91XP5 whole entry): T1 sequence (O75311 whole entry) with D32N, M372T, M398V, T399V, P406A

[7] = biological target: T6, Glycine receptor subunit alpha-1 (Mus musculus) (UniProt Q64018); experiment: Positive allosteric modulation of mouse GlyRalpha1 expressed in HEK293 cells assessed as potentiation of glycine-induced calcium flux by calcium dye-5 based FLIPR assay relative to glycine; format: cell-based
T6 sequence (whole entry): T2 sequence (whole entry) with L9F, E362D, A365G, S396N, Q457K

[8] = biological target: T7, Glycine receptor subunit alpha-1 (Mus musculus, UniProt Q64018); experiment: Positive allosteric modulation of mouse GlyRalpha1 expressed in HEK293 cells assessed as potentiation of glycine-induced calcium flux by calcium dye-5 based FLIPR assay; format: cell-based
T7 sequence (Q64018 whole entry): T2 sequence (whole entry) with L9F, E362D, A365G, S396N, Q457K

[9] = biological target: T3, Glycine receptor subunit alpha-3 (Homo sapiens); experiment: Positive allosteric modulation of human GlyRalpha3 expressed in HEK293 cells assessed as potentiation of glycine-induced calcium flux by calcium dye-5 based FLIPR assay relative to glycine; format: cell-based
[10] = biological target: T8, Glycine receptor alpha-3/beta (Homo sapiens, UniProt O75311+P48167); experiment: Positive allosteric modulation of human GlyRalpha3beta expressed in HEK293 cells assessed as potentiation of glycine-induced calcium flux by calcium dye-5 based FLIPR assay relative to glycine; format: cell-based
[11] = biological target: T2, Glycine receptor subunit alpha-1 (Homo sapiens); experiment: Positive allosteric modulation of human GlyRalpha1 expressed in HEK293 cells assessed as potentiation of glycine-induced calcium flux by calcium dye-5 based FLIPR assay relative to glycine; format: cell-based
[12] = biological target: T8, Glycine receptor alpha-3/beta; experiment: Positive allosteric modulation of human GlyRalpha3beta expressed in CHO cells assessed as potentiation of EC20 glycine-induced response at 5.9 uM by fluorescence based HTS assay; format: cell-based
[13] = biological target: T8, Glycine receptor alpha-3/beta; experiment: Positive allosteric modulation of human GlyRalpha3beta expressed in CHO cells assessed as potentiation of EC5 to EC10 glycine-induced response at 10 uM by manual patch clamp assay; format: cell-based
[14] = biological target: T4, Glycine receptor subunit alpha-3 (Mus musculus); experiment: Allosteric modulation of GlyRalpha3 in VGAT::ChR2 BAC transgenic mouse lumbar spinal cord slices assessed as increase in decay time constants of light-evoked Gly-IPSC at 100 uM by Whole cell patch clamp method
[15] = biological target: T4, Glycine receptor subunit alpha-3 (Mus musculus); experiment: Allosteric modulation of zymosan-A treated GlyRalpha3 in VGAT::ChR2 BAC transgenic mouse lumbar spinal cord slices assessed as increase in decay time constants of light-evoked Gly-IPSC at 100 uM by Whole cell patch clamp method
Mus musculus [16] = organism: Mus musculus; experiment: Analgesic activity in zymosan-A induced inflammation mouse model assessed as reduction in mechanical hyperalgesia; format: functional; set-up: scale not given: the % may be the effect or the level left
Mus musculus [17] = organism: Mus musculus; experiment: Analgesic activity in zymosan-A induced inflammation GlyR3 knock out mouse model assessed as reduction in mechanical hyperalgesia; format: functional; set-up: scale not given: the % may be the effect or the level left
[18] = biological target: T8, Glycine receptor alpha-3/beta; experiment: Positive allosteric modulation of human GlyRalpha3beta expressed in CHO cells assessed as potentiation of EC20 glycine-induced ion flux at 10 uM by HT assay; format: cell-based

- EC50 [1]: 8.5 µM
- Activity [2]: 110%
- Activity [3]: 260%
Compound: CC1=C[C@@H](/C=C(\C)CCCC2=CCN(CC(=O)O)C2=O)[C@]2(OC(=O)C(C)(O)C2=O)[C@@H]2[C@@H](C)CC[C@@H]12 (stereo partly drawn)

- Emax [4]: 104%
- Emax [5]: 63.5%
- EC50 [6]: 490 nM
- Emax [7]: 93.5%
- EC50 [8]: 268 nM
- Emax [9]: 100%
- Emax [10]: 102%
- Emax [11]: 102%
Compound: CN1C(=O)[C@@H]2CN(S(=O)(=O)c3ccc4occc4c3)C[C@@H]2c2cnccc21

- Activity [12]: 134%
- Activity [13]: 309%
- Activity [14]: 54%
- Activity [15]: 23.5%
- Activity [18]: 116%
Compound: CC(C)(C)c1cccc(C(C)(C)C)c1O
- Activity (Mus musculus [16]): 44.3%
- Activity (Mus musculus [17]): 16%
